Molecular target: T1, TEL-fused FGFR2 V564F mutant polypeptide (Homo sapiens, UniProt P21802, V564F)
T1 construct: expressed in transfected cells; for A6/A7 grown as subcutaneous tumours in BALB/c nude mice
Experiment: In vitro cell proliferation inhibition (WST-8), Ba/F3 strain stably expressing TEL-fused FGFR2 V564F mutant
Assay type: cell-based
Conditions: cultured four days, FIG. 3
Text: A polynucleotide encoding the dimerization domain of wild-type TEL (SEQ ID NO: 33) and a polynucleotide encoding the intracellular domain of wild-type FGFR2 (SEQ ID NO: 1) were fused by a PCR-based site-directed mutagenesis method to produce a polynucleotide (SEQ ID NO: 11) encoding the TEL-fused wild-type FGFR2 (SEQ ID NO: 34). Using the polynucleotide encoding the TEL-fused wild-type FGFR2 as a template, a polynucleotide (SEQ ID NO: 12) encoding the TEL-fused FGFR2 V564F mutant (SEQ ID NO: 35) was prepared by a PCR-based site-directed mutagenesis method.

T1 sequence (P21802 with tags, fused parts or gaps V564F): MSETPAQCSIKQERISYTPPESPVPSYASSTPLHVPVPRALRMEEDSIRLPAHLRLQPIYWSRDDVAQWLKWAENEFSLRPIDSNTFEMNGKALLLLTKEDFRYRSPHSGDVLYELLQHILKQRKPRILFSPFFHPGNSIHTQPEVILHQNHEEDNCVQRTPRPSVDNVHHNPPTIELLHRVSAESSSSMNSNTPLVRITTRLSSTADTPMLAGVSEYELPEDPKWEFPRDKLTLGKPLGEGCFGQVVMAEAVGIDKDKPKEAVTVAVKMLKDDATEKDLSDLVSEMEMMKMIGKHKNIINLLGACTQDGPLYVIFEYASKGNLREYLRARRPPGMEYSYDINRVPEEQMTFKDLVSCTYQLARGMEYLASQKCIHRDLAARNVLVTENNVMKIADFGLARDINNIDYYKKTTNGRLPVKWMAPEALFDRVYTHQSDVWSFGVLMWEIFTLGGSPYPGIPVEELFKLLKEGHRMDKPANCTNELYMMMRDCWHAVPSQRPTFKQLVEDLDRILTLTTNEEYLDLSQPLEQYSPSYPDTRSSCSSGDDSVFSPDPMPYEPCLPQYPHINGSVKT

cell proliferation-inhibiting activity compared to the strain stably expressing TEL-fused wild-type FGFR2 | SMILES
greatly weakened | CCN1CCN(c2ccc(Nc3cc(N(C)C(=O)Nc4c(Cl)c(OC)cc(OC)c4Cl)ncn3)cc2)CC1 [Compound D, BGJ-398]
greatly weakened | COc1cc2c(Oc3ccc4[nH]c(C)cc4c3F)ncnc2cc1OCCCN1CCCC1 [E, cediranib]
